A value given as a limit tells only on which side of the number the result lay.

In one assay the target is T1, human 5-HT1A (Homo sapiens, UniProt P08908).
T1 construct: expressed in transfected cells; host or cells: HEK293
T1 sequence (P08908 1-422): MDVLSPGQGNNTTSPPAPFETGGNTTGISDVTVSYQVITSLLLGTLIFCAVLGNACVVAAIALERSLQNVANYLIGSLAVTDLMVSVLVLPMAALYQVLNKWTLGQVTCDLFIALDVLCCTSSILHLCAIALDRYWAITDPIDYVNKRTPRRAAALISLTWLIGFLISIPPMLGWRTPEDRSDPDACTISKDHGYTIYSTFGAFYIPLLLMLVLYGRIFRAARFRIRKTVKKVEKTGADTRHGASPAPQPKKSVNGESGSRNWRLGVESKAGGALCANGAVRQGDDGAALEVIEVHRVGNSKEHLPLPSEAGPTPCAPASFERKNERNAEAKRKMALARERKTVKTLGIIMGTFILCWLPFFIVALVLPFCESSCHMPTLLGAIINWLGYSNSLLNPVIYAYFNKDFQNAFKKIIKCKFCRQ
The assay can be described thus: Radioligand displacement assay at 5-HT1A ([3H]-8-OH-DPAT, HEK293 cells). It is filed as binding. The following applies: HEK293 cells stably expressing h5-HT1A, read-out: Ki (n), 5-HT1A. As for the experimental part: (§1) HEK293 cells with a stable expression of human 5-HT1A, 5-HT6, 5-HT7b, and D2L (prepared with the use of Lipofectamine 2000), or CHO-K1 cells with plasmids containing the sequence coding for the human serotonin 5-HT2A receptor (PerkinElmer), were maintained at 37 °C in a humidified atmosphere with 5% CO2 and grown in Dulbecco’s Modified Eagle Medium containing 10% dialyzed fetal bovine serum and 500 µg/mL G418 sulfate. For membrane preparation, cells were subcultured in 150 cm^2 flasks, grown to 90% confluence, washed twice with prewarmed to 37 °C phosphate buffered saline (PBS) and pelleted by centrifugation (200× g) in PBS containing 0.1 mM EDTA and 1 mM dithiothreitol. Prior to membrane preparation, the pellets were stored at −80 °C.
(§2) Cell pellets were thawed and homogenized in 10 volumes of assay buffer using an Ultra Turrax tissue homogenizer, and were then centrifuged twice at 35,000× g for 15 min at 4 °C, with incubations for 15 min at 37 °C in between. […] The process of equilibration was terminated by rapid filtration through Unifilter plates with a 96-well cell harvester and the radioactivity retained on the filters was quantified on a Microbeta plate reader (PerkinElmer, Waltham, MA, USA). […] The inhibition constants (Ki) were calculated from the Cheng-Prusoff equation [38]. Results are expressed as means of two separate experiments.

The subject of another assay is C57BL/6 mice. The assay can be described thus: Forced swim test (FST). It is filed as in vivo. To be noted: for immobility time in FST: acute i.p. pretreatment, ST-2300 or PIM 5, 10, 15 mg/kg, vs saline controls, adult male C57BL/6 mice, 6 min. As for the experimental part: Inbred adult male C57BL/6 mice (aged 10–12 weeks and weighing 20–25 g) were obtained from the animal facility in the College of Medicine and Health Sciences, United Arab Emirates University. The animals were maintained in a separate air-conditioned room with controlled temperature and humidity (24 ± 2 °C and 55 ± 15%, respectively), with a 12 h light/dark cycle, and ad libitum to food and water. All the experiments were performed between 9.00 am and 3.00 pm. The procedures were approved by the Institutional Animal Ethics Committee of College of Medicine and Health Sciences/United Arab Emirates University (Approval No. ERA-2019-6010). To reduce the suffering of the animals, a minimum number of animals were used in this study, whereas the objectives were not compromised.
These experiments provide the first behavioral assessment of the ST-2300 in anxiety-like and depression-like behaviors in mice. All doses are expressed in terms of the free base of all test compounds. The drugs used in the current study were dissolved in saline and injected i.p. at a volume of 1 mL/kg. All experimental procedures were conducted in a blinded fashion in which the experimenter was uninformed about the specific treatment groups to which an animal group belonged. Saline, ST-2300 (5, 10, and 15 mg/kg), PIM (5, 10, and 15 mg/kg), FLX (10 mg/kg), RAM (10 mg/kg), and DZP (1 mg/kg) were injected i.p. 30–45 min before the beginning of the behavioral experiments.
The FST test was performed according to previously described protocols. Mice were individually placed into glass cylinders containing 15 cm of water at ∼25 °C. The mice were left in the cylinders for 6 min and immobility was observed and analyzed. The mice were then removed from the container and left to dry in a heated enclosure before being returned to their home cages. The mice were considered to be immobile when they ceased struggling and remained floating motionless in the water (without any vertical or horizontal movements), making only the movements necessary to keep their heads above the water level as described previously.

The target in a further assay is T2, human 5-HT6 (Homo sapiens, UniProt P50406).
T2 construct: expressed in transfected cells; host or cells: HEK293
T2 sequence (P50406 whole entry): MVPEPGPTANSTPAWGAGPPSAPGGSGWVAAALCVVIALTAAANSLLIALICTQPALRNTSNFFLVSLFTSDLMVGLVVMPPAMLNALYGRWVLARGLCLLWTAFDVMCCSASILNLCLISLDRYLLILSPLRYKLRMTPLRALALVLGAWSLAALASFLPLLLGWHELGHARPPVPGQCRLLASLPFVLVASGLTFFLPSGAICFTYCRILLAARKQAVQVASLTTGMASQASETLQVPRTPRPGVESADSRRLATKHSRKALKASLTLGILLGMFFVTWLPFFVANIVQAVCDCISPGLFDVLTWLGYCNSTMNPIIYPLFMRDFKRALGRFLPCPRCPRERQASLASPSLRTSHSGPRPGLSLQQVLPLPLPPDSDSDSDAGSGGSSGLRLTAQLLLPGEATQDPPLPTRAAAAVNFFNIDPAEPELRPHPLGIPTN
As to the kind of experiment: Radioligand displacement assay at 5-HT6 ([3H]-LSD, HEK293 cells). It is filed as binding. To be noted: HEK293 cells stably expressing h5-HT6, read-out: Ki ± SD (n), 5-HT6. The procedure: as §1, §2

For the compound `CC(C)COc1ccc(CNC(=O)N(Cc2ccc(F)cc2)C2CCN(C)CC2)cc1` [Pimavanserin, reference compound], the Ki was above 10 µM on human 5-HT1A and 0.059 ± 0.011 µM on human 5-HT6. In the assay on C57BL/6 mice, the “immobility time in FST” value was “significant and dose-dependent decrease of immobility time”.

In the case of `CN1CCC(N(Cc2ccc(F)cc2)C(=O)NCc2ccc(OCCCN3CCCCC3)cc2)CC1` [ST-2300, 1-(4-Fluorobenzyl)-1-(1-methylpiperidin-4-yl)-3-{4-[3-(piperidin-1-yl)propoxy]benzyl}urea], the Ki on human 5-HT1A and at human 5-HT6 was above 10 µM in each case. Moreover, the “immobility time in FST, co-administration of RAM” value with C57BL/6 mice (ST-2300 10 mg/kg i.p. co-administered with H3R agonist RAM 10 mg/kg i.p., vs ST-2300 alone) is reported as “significant increase of immobility time”. The “immobility time in FST” value in the assay on C57BL/6 mice is “significant and dose-dependent decrease of immobility time”.

Source of the values: paper PMC9138994 (Biomolecules, 2022).
